Experiments:
Assay type in all cases: cell-based
[1] = test system: Peptococcus magnus KY 017; experiment: Antibacterial spectra, MIC; conditions: Finegoldia magna, KY017
[2] = test system: Alcaligenes faecalis 0114002; experiment: Antibacterial spectra, MIC
[3] = test system: B. thetaiotaomicron (0661); experiment: Antibacterial spectra, MIC; conditions: Bacteroides thetaiotaomicron
[4] = test system: S. aureus IID 670 (Terajima); experiment: Antibacterial spectra, MIC; conditions: Staphylococcus aureus, IID670
[5] = test system: Escherichia coli NIHJ JC-2; experiment: Antibacterial spectra, MIC; conditions: NIHJJC2
[6] = test system: Enterobacter cloacae IID 977; experiment: Antibacterial spectra, MIC; conditions: IID977
[7] = test system: F. necrophorum S-45; experiment: Antibacterial spectra, MIC; conditions: Fusobacterium necrophorum, S45
[8] = test system: Peptostreptococcus anaerobius KYA 27337; experiment: Antibacterial spectra, MIC; conditions: KYA27337
[9] = test system: B. vulgatus KYA 29327; experiment: Antibacterial spectra, MIC; conditions: Phocaeicola vulgatus, KYA29327
[10] = test system: Clostridium difficile I-E; experiment: Antibacterial spectra, MIC; conditions: Clostridioides difficile
[11] = test system: F. varium KYA 8501; experiment: Antibacterial spectra, MIC; conditions: Fusobacterium varium, KYA8501; 10^6 cells/ml; Gram -; read-out: MIC
[12] = test system: Klebsiella pneumoniae KY(GN)6445; experiment: Antibacterial spectra, MIC
[13] = test system: Propionibacterium acens 11828; experiment: Antibacterial spectra, MIC
[14] = test system: S. pyogenes IID 692; experiment: Antibacterial spectra, MIC; conditions: Streptococcus pyogenes, IID692
[15] = test system: Bacilus subtilis PCI 219; experiment: Antibacterial spectra, MIC; conditions: Bacillus subtilis, PCI219
[16] = test system: Veillonella parvula KYA 10790; experiment: Antibacterial spectra, MIC; conditions: KYA10790
[17] = test system: Pst. micros UPI 5464-1; experiment: Antibacterial spectra, MIC; conditions: Parvimonas micra, UPI54641
[18] = test system: Yersinia enterocolitica IID 981; experiment: Antibacterial spectra, MIC; conditions: IID981
[19] = test system: P. mirabilis IID 994; experiment: Antibacterial spectra, MIC; conditions: Proteus mirabilis, IID994
[20] = test system: Salmonella enteritidis IID 604; experiment: Antibacterial spectra, MIC; conditions: Salmonella enterica
[21] = test system: Morganella morganii IID 602; experiment: Antibacterial spectra, MIC; conditions: IID602
[22] = test system: Pseudomonas aeruginosa V-1; experiment: Antibacterial spectra, MIC; conditions: V1
[23] = test system: Eubacterium lentum GAI 5242; experiment: Antibacterial spectra, MIC; conditions: Eggerthella lenta, GAI5242
[24] = test system: S. epidermidis IID 866; experiment: Antibacterial spectra, MIC; conditions: Staphylococcus epidermidis, IID866
[25] = test system: E. coli ATCC 10536; experiment: Antibacterial spectra, MIC; conditions: Escherichia coli, ATCC10536
[26] = test system: P. cepacia GIFU 518; experiment: Antibacterial spectra, MIC; conditions: Burkholderia cepacia, GIFU518
[27] = test system: B. distasonis 8503; experiment: Antibacterial spectra, MIC; conditions: Parabacteroides distasonis
[28] = test system: Bacteroides fragilis GM 7000; experiment: Antibacterial spectra, MIC; conditions: GM7000
[29] = test system: P. aeruginosa IFO 12689; experiment: Antibacterial spectra, MIC; conditions: Pseudomonas aeruginosa, IFO12689
[30] = test system: Citrobacter freundii IID 976; experiment: Antibacterial spectra, MIC; conditions: IID976
[31] = test system: P. maltophilia GIFU 2491; experiment: Antibacterial spectra, MIC; conditions: Stenotrophomonas maltophilia, GIFU2491
[32] = test system: B. fragilis 0558; experiment: Antibacterial spectra, MIC; conditions: Bacteroides fragilis
[33] = test system: Staphylococcus aureus 209 P; experiment: Antibacterial spectra, MIC
[34] = test system: C. ramosum; experiment: Antibacterial spectra, MIC; conditions: Thomasclavelia ramosa
[35] = test system: B. fragilis 25285; experiment: Antibacterial spectra, MIC; conditions: Bacteroides fragilis
[36] = test system: P. aeruginosa IID 1210; experiment: Antibacterial spectra, MIC; conditions: Pseudomonas aeruginosa, IID1210
[37] = test system: K. pneumoniae 1-220S; experiment: Antibacterial spectra, MIC; conditions: Klebsiella pneumoniae, 1220S
[38] = test system: S. pneumoniae IID 552; experiment: Antibacterial spectra, MIC; conditions: Streptococcus pneumoniae, IID552
[39] = test system: Shigella sonnei IID 969; experiment: Antibacterial spectra, MIC; conditions: IID969, 10^6 cells/ml, Gram -
Protocol: (§1) The antibacterial test was carried out according to the method designated by Japan Society of Chemotherapy.

[40] = test system: E. coli ML 4707; experiment: Antibacterial spectra, MIC; conditions: Escherichia coli, ML4707; 10^6 cells/ml; Gram -
Protocol: as §1

[41] = test system: E. faecalis IID 682; experiment: Antibacterial spectra, MIC; conditions: Enterococcus faecalis, IID682; 10^6 cells/ml; Gram +
Protocol: as §1

[42] = test system: Proteus vulgaris IFO 3167; experiment: Antibacterial spectra, MIC; conditions: IFO3167, 10^6 cells/ml, Gram -
Protocol: as §1

[43] = test system: Streptococcus pyogenes (S-8); experiment: Antibacterial spectra, MIC; conditions: 10^6 cells/ml, Gram +
Protocol: as §1

[44] = test system: Acinetobacter anitratus IID 876; experiment: Antibacterial spectra, MIC; conditions: Acinetobacter calcoaceticus, IID876
[45] = test system: Serratia marcescens IID 618; experiment: Antibacterial spectra, MIC; conditions: IID618
[46] = test system: S. aureus Smith; experiment: Antibacterial spectra, MIC; conditions: Staphylococcus aureus
[47] = test system: Fusobacterium mortiferum 4249; experiment: Antibacterial spectra, MIC
[48] = test system: C. perfringens KYA 13123; experiment: microbe, parasite or virus in culture; conditions: Clostridium perfringens, KYA13123

Measured: MIC

COc1c(N2C[C@@H](C)[C@H](N)C2)c(F)cc2c(=O)c(C(=O)O)cn(C3CC3)c12 (relative stereo) [Exp. 6, 7-(trans-3-amino-4-methyl-1-pyrrolidinyl)-1-cyclopropyl-6-fluoro-1,4-dihydro-8-methoxy-4-oxo-3-quinolinecarboxylic acid]
0.78 µg/mL: [10] | [22] | [29] | [34] | [36]
1.56 µg/mL: [11]
0.025 µg/mL: [33]
≤ 0.05 µg/mL: [1] | [23]
0.2 µg/mL: [2] | [3] | [7] | [9] | [16] | [17] | [47] | [48]
0.0125 µg/mL: [5] | [15] | [25] | [39] | [40]
0.1 µg/mL: [8] | [14] | [21] | [24] | [28] | [32] | [35] | [38] | [41]
3.13 µg/mL: [13]
0.39 µg/mL: [26] | [27]
0.05 µg/mL: all other assays above

Reference: patent US5043450A, “8-alkoxyquinolonecarboxylic acid and salts thereof” (priority 1986, dated 1991)
